Data as given in article PMC2673432 (Nucleic Acids Research, 2009).

Target: human L3MBTL2 4-MBT-repeat domain (4MBT, residues 170–625) (Homo sapiens, UniProt Q969R5)
Test: Isothermal titration calorimetry
Type: binding
Settings: ITC, 25°C, pH 7.5, 200 mM NaCl; values in Supplementary Figure 3

Chain of human L3MBTL2 4-MBT-repeat domain (4MBT, residues 170–625) (Q969R5 170-625): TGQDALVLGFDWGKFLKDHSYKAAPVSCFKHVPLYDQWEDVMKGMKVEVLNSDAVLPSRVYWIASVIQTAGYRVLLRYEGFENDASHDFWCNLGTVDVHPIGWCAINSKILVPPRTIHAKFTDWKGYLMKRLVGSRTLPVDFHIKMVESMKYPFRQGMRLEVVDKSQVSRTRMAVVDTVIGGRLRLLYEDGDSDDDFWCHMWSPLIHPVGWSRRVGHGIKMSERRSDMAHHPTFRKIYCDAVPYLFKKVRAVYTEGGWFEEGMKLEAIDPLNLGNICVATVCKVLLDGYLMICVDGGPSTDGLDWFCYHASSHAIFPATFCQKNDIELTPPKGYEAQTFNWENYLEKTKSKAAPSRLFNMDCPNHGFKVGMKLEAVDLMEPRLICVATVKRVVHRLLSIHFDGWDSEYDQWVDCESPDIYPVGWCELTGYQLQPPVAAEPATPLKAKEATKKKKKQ

SMILES: CNCCCC[C@H](N)C(=O)O [free mono-methylated lysine, mono-methylated lysine]
- Relative binding affinity (in words): binds mono- and di-methylated lysine centrally located in a peptide more tightly than free mono-methylated lysine
